# Molecular target: T1, AAK1 (Homo sapiens, UniProt Q2M2I8)
# T1 construct: HA; expressed in transfected cells; host or cells: HEK293F
# Assay: HEK281 cell-based assay (phospho-mu2 Western blot in transfected HEK293F cells)
# Conditions: 3 hours incubation, read-out: CBA IC50
# Experimental: HEK293F cells were cultured in media containing DMEM (Gibco, cat. #11965), 10% FBS (SAFC Biosciences, cat. #12103C), 1×GPS (glutamine, penicillin and streptomycin). On day one, cells were plated on a 10 cm dish so that they are ˜80% confluent at time of transfection. Roughly 12 million cells were in a 10 cm dish at time of transfection. On day two, each dish was transfected with 48 ug DNA and 144 ul Lipofectamine 2000 (Invitrogen, cat.#11668-019). The DNA was comprised of a mixture (per 10 cm dish) containing 3 ug AAK1/HA/pIRES (full length human, NCBI accession no. NP_055726.2), 45 μg Flag/AP2MI/pcDNA (full length human), and 1.5 ml OPTI-MEM. The Lipofectamine 2000 is made up of a mixture (per 10 cm dish) containing 144 μl Lipofectamine 2000 and 1.5 ml OPTI-MEM. Each mixture was transferred to individual 15 ml tubes and incubated at RT for 5 minutes, and then the two mixes were combined and incubated at RT for 20 minutes. Growth media was then aspirated from each 10 cm plate and replaced with 10 ml of DMEM+10% FBS (no GPS). Finally, 3 ml DNA/Lipofectamine mix was added to each 10 cm dish and mix gently followed by incubate of plate overnight at 37° C. and 5% CO2.
# On day three, compounds were diluted in 100% DMSO at 1000× final concentration, followed by 3-fold serial dilutions for a total of 5 concentrations tested. Four compounds were tested per 10 cm dish. One ul of each compound dilution was then pipetted into a deep-well, 96-well plate, followed by addition of 500 μl DMEM+0.5% FBS into each well for a 2× final concentration of each compound. Cells were resuspended in a 10 cm dish by simple pipetting (HEK293 cells come off the plate that easy at this point) and then transferred to a 50 ml conical tube and pelleted by centrifugation at 1000 rpm for 5 min. Cell pellets were then resuspended in 2.75 ml DMEM+0.5% FBS per 10 cm dish and 100 μl of cell suspension transferred into each well of 96-well TC plate. Finally, 100 μl of 2× compound diluted in DMEM+0.5% FBS was then added into wells containing cell suspension for a 1× final concentration. Plates were then incubated at 37° C. and 5% CO2 for 3 hours followed by transferring of cell suspensions from each well into 12-tube PCR strips. The PCR strips were spun in a tip rack at 1000 rpm for 5 minutes to pellet cells and media was then removed by pipetting without disturbing the cell pellet.
# To prepare for Western Blot analysis, cell pellets were resuspend in 40 ul 1×LDS-PAGE sample buffer (Invitrogen, cat.#NP0008)+2× Halt phophatase and protease inhibitor cocktail (Thermo Scientific, cat.#1861284), followed by sonicating each with microtip sonicator set at 5 for 8-10 seconds. Five ul of 10× NuPage Sample Reducing Agent (with 50 mM DTT) was to each sample followed by heat denaturing at 70 C for 10 min on PCR machine. A total of 10 μl per sample was loaded into each lane of a 4-20% Tris-Glycine Criterion 26-well gel (Biorad, cat.#345-0034) for the phospho-mu2 blot and 10 μl per lane in a 4-12% Bis-Tris (+MES buffer) NuPAGE 26-well gel (Invitrogen, cat.#WG1403BX10) for the mu2 blot. For controls, 2 ng of phospho-mu2 or 20 ng mu2/Flag proteins were loaded in the last well of each gel. After SDS-PAGE, samples on each gel were transferred to PVDF membrane using an iBlot and membranes were blocked for one hour in TBST+5% milk, followed by wash 3× for 5-10 min with TBST. Criterion gels were probed with rabbit anti-phospho-mu2 (1:5000; a rabbit polyclonal antibody produced by New England Peptide and affinity purified at Lexicon) in TBST+5% BSA, whereas, NuPAGE gels were probed with mouse anti-Flag (1:500; Sigma, cat.#F1804) in TBST+5% milk, and these primary antibodies were incubated overnight at 4° C. on a rocker.
# T1 sequence (Q2M2I8 1-863 isoform Q2M2I8-2): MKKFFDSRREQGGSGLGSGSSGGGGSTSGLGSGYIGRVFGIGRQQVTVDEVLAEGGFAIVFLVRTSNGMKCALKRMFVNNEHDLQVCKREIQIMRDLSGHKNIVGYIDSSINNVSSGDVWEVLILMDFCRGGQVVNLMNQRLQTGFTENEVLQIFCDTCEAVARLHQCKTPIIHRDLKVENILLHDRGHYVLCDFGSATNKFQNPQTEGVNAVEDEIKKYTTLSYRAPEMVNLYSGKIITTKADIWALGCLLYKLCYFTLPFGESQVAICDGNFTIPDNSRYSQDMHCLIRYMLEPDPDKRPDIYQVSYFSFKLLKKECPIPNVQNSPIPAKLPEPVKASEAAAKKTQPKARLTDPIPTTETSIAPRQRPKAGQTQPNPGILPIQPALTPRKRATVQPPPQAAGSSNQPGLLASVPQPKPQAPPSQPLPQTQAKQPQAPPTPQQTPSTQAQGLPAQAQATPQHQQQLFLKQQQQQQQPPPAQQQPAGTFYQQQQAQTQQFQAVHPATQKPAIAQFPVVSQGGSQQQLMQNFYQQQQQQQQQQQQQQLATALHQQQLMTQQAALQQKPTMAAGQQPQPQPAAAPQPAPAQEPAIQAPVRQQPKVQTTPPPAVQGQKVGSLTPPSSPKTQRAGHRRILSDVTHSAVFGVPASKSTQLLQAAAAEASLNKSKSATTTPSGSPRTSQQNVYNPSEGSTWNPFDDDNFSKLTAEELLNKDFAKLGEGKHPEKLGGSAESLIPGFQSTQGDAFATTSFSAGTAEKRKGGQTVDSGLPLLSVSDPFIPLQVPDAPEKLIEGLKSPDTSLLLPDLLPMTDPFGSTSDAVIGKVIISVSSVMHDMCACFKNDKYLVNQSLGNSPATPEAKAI
row,IC50 [nM],SMILES
1,≤ 100,"CC(C)OC(=O)N1CCN(c2ccc3ncc(-c4cccc5c4OCC5)n3n2)CC1 [isopropyl 4-(3-(2,3-dihydrobenzofuran-7-yl)imidazo[1,2-b]pyridazin-6-yl)piperazine-1-carboxylate]"
2,≤ 100,"CCCCNc1ccc2ncc(-c3ccc(C(=O)N[C@@H]4CCCC[C@@H]4N)cc3)n2n1 [N-((1R,2S)-2-aminocyclohexyl)-4-(6-(butylamino)imidazo[1,2-b]pyridazin-3-yl)benzamide]"
3,≤ 10,"COc1cnccc1-c1cnc2ccc(NC[C@@H]3CCCN3C(=O)CC(C)C)nn12 [(S)-1-(2-(((3-(3-methoxypyridin-4-yl)imidazo[1,2-b]pyridazin-6-yl)amino)methyl)pyrrolidin-1-yl)-3-methylbutan-1-one]"
4,≤ 1000,"CCCNc1ccc2ncc(-c3ccc(C=O)s3)n2n1 [5-(6-(propylamino)imidazo[1,2-b]pyridazin-3-yl)thiophene-2-carbaldehyde]"
5,≤ 100,"CCCCNc1ccc2ncc(-c3sc(C)nc3C)n2n1 [N-butyl-3-(2,4-dimethylthiazol-5-yl)imidazo[1,2-b]pyridazin-6-amine]"
6,≤ 100,"CC(C)(C)OC(=O)N1CCCC1CCNc1ccc2ncc(-c3ccc(C(N)=O)cc3)n2n1 (centres unmarked) [tert-butyl 2-(2-((3-(4-carbamoylphenyl)imidazo[1,2-b]pyridazin-6-yl)amino)ethyl)pyrrolidine-1-carboxylate]"
7,≤ 100,"NCc1ccc(-c2cnc3ccc(NCCc4ccccc4F)nn23)cc1 [3-(4-(aminomethyl)phenyl)-N-(2-fluorophenethyl)imidazo[1,2-b]pyridazin-6-amine]"
8,≤ 100,"CNCCOCc1ccc(-c2cnc3ccc(NCCC(C)(C)C)nn23)cc1 [N-(3,3-dimethylbutyl)-3-(4-((2-(methylamino)ethoxy)methyl)phenyl)imidazo[1,2-b]pyridazin-6-amine]"
9,≤ 1000,"NCc1ccc(-c2cnc3ccc(NCCc4ccccc4)nn23)cc1 [3-(4-(aminomethyl)phenyl)-N-phenethylimidazo[1,2-b]pyridazin-6-amine]"
10,≤ 10,"CC(C)OC(=O)N(C)CCNc1ccc2ncc(-c3ccc(C(N)=O)cc3)n2n1 [isopropyl (2-((3-(4-carbamoylphenyl)imidazo[1,2-b]pyridazin-6-yl)amino)ethyl)(methyl)carbamate]"
11,≤ 1000,"CCCNc1ccc2ncc(-c3ccc(C(C)=O)s3)n2n1 [1-(5-(6-(propylamino)imidazo[1,2-b]pyridazin-3-yl)thiophen-2-yl)ethanone]"
12,≤ 100,"CN(CCNc1ccc2ncc(-c3ccncc3)n2n1)C(=O)OC(C)(C)C [tert-butyl methyl(2-((3-(pyridin-4-yl)imidazo[1,2-b]pyridazin-6-yl)amino)ethyl)carbamate]"
13,≤ 100,"COc1cnccc1-c1cnc2ccc(NCCN(C)C(=O)OC(C)C)nn12 [isopropyl (2-((3-(3-methoxypyridin-4-yl)imidazo[1,2-b]pyridazin-6-yl)amino)ethyl)(methyl)carbamate]"
14,≤ 100,"CCN(CC)CCNC(=O)c1ccc(-c2cnc3ccc(NCCOC(C)C)nn23)cc1 [N-(2-(diethylamino)ethyl)-4-(6-((2-isopropoxyethyl)amino)imidazo[1,2-b]pyridazin-3-yl)benzamide]"
15,≤ 100,"COc1ccccc1-c1cnc2ccc(NCCN(C)C(=O)OC(C)C)nn12 [isopropyl (2-((3-(2-methoxyphenyl)imidazo[1,2-b]pyridazin-6-yl)amino)ethyl)(methyl)carbamate]"
16,≤ 100,"CCOC(=O)N1CCC[C@H]1CNc1ccc2ncc(-c3ccncc3OC)n2n1 [(S)-ethyl 2-(((3-(3-methoxypyridin-4-yl)imidazo[1,2-b]pyridazin-6-yl)amino)methyl)pyrrolidine-1-carboxylate]"

row,IC50 [nM],SMILES
1,≤ 100,"CCCCNc1ccc2ncc(-c3ccc(C(N)=O)cc3)n2n1 [4-(6-(butylamino)imidazo[1,2-b]pyridazin-3-yl)benzamide]"
2,≤ 100,"COc1cnccc1-c1cnc2ccc(NCCN(C(=O)OC(C)(C)C)C(C)C)nn12 [tert-butyl isopropyl(2-((3-(3-methoxypyridin-4-yl)imidazo[1,2-b]pyridazin-6-yl)amino)ethyl)carbamate]"
3,≤ 100,"CCOC(=O)N(CCNc1ccc2ncc(-c3ccc(C(N)=O)cc3)n2n1)C(C)C [ethyl (2-((3-(4-carbamoylphenyl)imidazo[1,2-b]pyridazin-6-yl)amino)ethyl)(isopropyl)carbamate]"
4,≤ 100,"CCOC(=O)N(C)CCNc1ccc2ncc(-c3ccc(C(=O)NC(C)(C)C)cc3)n2n1 [ethyl (2-((3-(4-(tert-butylcarbamoyl)phenyl)imidazo[1,2-b]pyridazin-6-yl)amino)ethyl)(methyl)carbamate]"
5,≤ 1000,"CCCOC(=O)N(CCNc1ccc2ncc(-c3ccncc3OC)n2n1)C(C)C [propyl isopropyl(2-((3-(3-methoxypyridin-4-yl)imidazo[1,2-b]pyridazin-6-yl)amino)ethyl)carbamate]"
6,≤ 1000,"CCCCNc1ccc2ncc(-c3ccc(CNCCCN)cc3)n2n1 [N1-(4-(6-(butylamino)imidazo[1,2-b]pyridazin-3-yl)benzyl)propane-1,3-diamine]"
7,≤ 100,"CCCCNc1ccc2ncc(-c3ccc4cnccc4c3)n2n1 [Butyl-(3-isoquinolin-6-yl-imidazo[1,2-b]pyridazin-6-yl)amine]"
8,≤ 100,"CC(C)(C)CCNc1ccc2ncc(-c3ccc(COCCN)cc3)n2n1 [3-(4-((2-aminoethoxy)methyl)phenyl)-N-(3,3-dimethylbutyl)imidazo[1,2-b]pyridazin-6-amine]"
9,≤ 1000,"CCCCCNc1ccc2ncc(-c3ccc(C4CCCN4)cc3)n2n1 (centres unmarked) [Pentyl-[3-(4-pyrrolidin-2-yl-phenyl)-imidazo[1,2-b]pyridazin-6-yl]-amine]"
10,≤ 100,"CCOC(=O)N(C)CCNc1ccc2ncc(-c3ccc(C(=O)NC)s3)n2n1 [ethyl methyl(2-((3-(5-(methylcarbamoyl)thiophen-2-yl)imidazo[1,2-b]pyridazin-6-yl)amino)ethyl)carbamate]"
11,≤ 100,"CC(C)CC(=O)N1CCC[C@H]1CNc1ccc2ncc(-c3ccncc3)n2n1 [(S)-3-methyl-1-(2-(((3-(pyridin-4-yl)imidazo[1,2-b]pyridazin-6-yl)amino)methyl)pyrrolidin-1-yl)butan-1-one]"
12,≤ 1000,"COc1cnccc1-c1cnc2ccc(NCCN(C(=O)OCCF)C(C)C)nn12 [2-fluoroethyl isopropyl(2-((3-(3-methoxypyridin-4-yl)imidazo[1,2-b]pyridazin-6-yl)amino)ethyl)carbamate]"
13,≤ 1000,"CC(C)(C)OC(=O)N1CC[C@@H](CNc2ccc3ncc(Br)n3n2)C1 [(S)-tert-butyl 3-(((3-bromoimidazo[1,2-b]pyridazin-6-yl)amino)methyl)pyrrolidine-1-carboxylate]"
14,≤ 10,"COc1ccc(F)cc1-c1cnc2ccc(NCCN(C)C(=O)OC(C)C)nn12 [isopropyl (2-((3-(5-fluoro-2-methoxyphenyl)imidazo[1,2-b]pyridazin-6-yl)amino)ethyl)(methyl)carbamate]"
15,≤ 100,"CCOC(=O)N1CCC[C@H]1CNc1ccc2ncc(-c3ccc(C4CCCN4)cc3)n2n1 (stereo partly drawn) [(2S)-ethyl 2-(((3-(4-(pyrrolidin-2-yl)phenyl)imidazo[1,2-b]pyridazin-6-yl)amino)methyl)pyrrolidine-1-carboxylate]"
16,≤ 100,"CC(C)(C)CCNc1ccc2ncc(-c3ccc(CN)cc3)n2n1 [3-(4-(aminomethyl)phenyl)-N-(3,3-dimethylbutyl)imidazo[1,2-b]pyridazin-6-amine]"

# Source: US8969565B2, “Imidazo[1,2-b]pyridazine-based compounds, compositions comprising them, and methods of their use” (Lexicon Pharmaceuticals, Inc., priority 2012, dated 2015)
